Measured values from US10183944B2 (Asana Biosciences, LLC, priority 2011, dated 2019).
Structures can show the parent of a compound that is named as a salt.

How the values were obtained:
JAK2 = JAK2 (Homo sapiens (Human), UniProt O60674); assay: Inhibition of enzymatic JAK2 kinase activity (TR-FRET); format: biochemical; settings: read-out: IC50 JAK
In short: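 TR-FRET read-out (Eu antibody donor, Ulight poly Glu-Tyr acceptor, 665/615 nm ratio) after a 60 min RT kinase reaction with ATP, begun following 30 min compound–enzyme preincubation. Stopped by EDTA; inhibition expressed as 100 minus % activity of positive control.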

[1] = biological target: Syk (356-635 amino acids) catalytic domain (Homo sapiens (Human), UniProt P43405); assay: Inhibition of enzymatic Syk kinase activity (radiometric); format: biochemical; settings: read-out: IC50 Syk
In short: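 Radiometric filter-binding format: 32P transfer from γ-32P-ATP onto pG4T, scintillation-counted after acid washes of P81 paper. Syk kinase domain (356-635), 0.035–7.5 ng per reaction, was exposed to compound for 30 minutes at room temperature before a 10-minute, 30° C. reaction with ATP (100 μM stock). Inhibition derived from counts with versus without compound.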

RBL2H3 cells = assay: Degranulation assay: β-hexosaminidase release during immune complex mediated degranulation; format: cell-based, rat; settings: Rattus norvegicus, RBL-2H3, Assay Protocol B (96 well format); for inhibition at 1 µM: read-out: Degranulation % inhibition at 1 μM; for EC50: read-out: Degranulation EC50
Procedure: The objective of this assay was to examine by Fluorescence method the effect of compounds on β-hexosaminidase release during immune complex mediated degranulation in RBL2H3 cells. Compounds were tested for their ability to inhibit the ability of this immune complex to mediate β-hexosaminidase release, in an enzyme assay with […] as substrate. […] Emission 460 nm). [table] [table] RBL2H3 cells were maintained in MEM complete media containing 10% FBS at 70%-80% confluence in a mammalian cell culture CO2 incubator with 5% CO2 at 37° C. 2×10^5 cells/well were plated in 1 mL of complete media and incubated for 5 hours for cell attachment. Complete media was replaced with 1 mL of serum free MEM media containing 1.2 μg/mL of anti-DNP rat IgE as sensitizing agent and further incubated overnight with 5% CO2 at 37° C. […] Cells were further stimulated with 5 μg/mL of DNP-BSA for 60 minutes. Plates were centrifuged for 5 minutes at 1000 rpm and 25 μL of culture supernatant was transferred from each assay well into a 96 well black coated plate. 25 μL β-NAG substrate was added to this mixture and incubated at room temperature for 30 minutes. The reaction was terminated with 100 μL of stop solution and fluorescence was monitored. (Excitation 355 nm; Emission 460 nm) See, Sanderson, (2010), Cellular Immunology, 262(1): 28-34 and Silverman, (2006) MCB, 26(5):1826-1838, which are incorporated herein by reference. The % release of β-Hexosaminidase for the test compound was calculated using the following formula: RBL2H3 cells were maintained in MEM complete media containing 10% FBS at 70-80% confluence in a mammalian cell culture CO2 incubator with 5% CO2 at 37° C. 5×10^4 cells/well were plated in 200 μL of complete media containing 0.3 μg/mL of anti-DNP rat IgE as sensitizing agent for 24 hours at 37° C. & 5% CO2. The following day, cells were washed twice with PIPES buffer for 10 minutes at 37° C. and replenished with serum free MEM media. Cells were treated with various concentrations of test compounds (in 0.5% DMSO) for 15 minutes at 37° C. and 5% CO2. The cells were further stimulated with 0.1 μg/mL of DNP-BSA for 45 minutes. The plates were spun for 5 minutes at 2000 rpm and 25 μL of culture supernatant was then transferred from each assay well into a 96 well black coated plate. […] β-NAG substrate was added and incubated at RT for 30 minutes. After incubation with substrate, 150 μL of stop solution was added and fluorescence was monitored. (Excitation 355 nm; Emission 460 nm). See, Yamamoto, JPET, 306(3):1174-1181 (2003) and Taylor, MCB, 15(8): 4149-4157 (1995), which are herein incorporated by reference. Release of β-hexosaminidase during the degranulation process by immune complex mediated FcεRI stimulation is through the SYK pathway. The % inhibition of β-hexosaminidase release by Syk inhibitor gives information with regard to its Syk inhibition potency.

JAK2, sequence (O60674 808-1132): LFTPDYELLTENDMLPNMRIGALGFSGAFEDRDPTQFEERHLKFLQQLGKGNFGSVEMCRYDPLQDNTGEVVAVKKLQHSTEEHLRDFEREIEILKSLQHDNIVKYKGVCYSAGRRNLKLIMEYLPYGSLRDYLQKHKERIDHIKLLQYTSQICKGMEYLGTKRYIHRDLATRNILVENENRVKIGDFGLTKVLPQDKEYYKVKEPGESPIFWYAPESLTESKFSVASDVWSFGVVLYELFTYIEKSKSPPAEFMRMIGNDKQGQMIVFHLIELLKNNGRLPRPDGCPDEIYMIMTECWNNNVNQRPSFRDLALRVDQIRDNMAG

IC50 (JAK2)	IC50 [1]	EC50 (RBL2H3 cells)	Compound	inhibition at 1 µM (RBL2H3 cells)
< 0.01 µM	< 0.01 µM	0.116 µM	O=C(O)C[C@H]1CC[C@@H](c2ccc(Nc3nc(N4CCCCCC4)nc4cn[nH]c(=O)c34)cc2)CC1 [Example 123, 2-((1S,4S)-4-(4-((2-(azepan-1-yl)-5-oxo-5,6-dihydropyrimido[4,5-d]pyridazin-4-yl)amino)phenyl)cyclohexyl)acetic acid]	90%
< 0.01 µM	< 0.01 µM	0.035 µM	O=C(O)C1CC1C1CCN(c2ccc(Nc3nc(N4CCCCCC4)nc4cn[nH]c(=O)c34)cc2)CC1 (stereo not shown) [Example 131, 2-(1-(4-((2-(azepan-1-yl)-5-oxo-5,6-dihydropyrimido[4,5-d]pyridazin-4-yl)amino)phenyl)piperidin-4-yl) cyclopropanecarboxylic acid]	98%
< 0.01 µM	< 0.05 µM	0.024 µM	O=C(O)CCC1CCN(c2ccc(Nc3nc(-c4ccccc4)nc4cn[nH]c(=O)c34)cc2)CC1 [Example 132, 3-(1-(4-((5-oxo-2-phenyl-5,6-dihydropyrimido[4,5-d]pyridazin-4-yl)amino)phenyl)piperidin-4-yl)propanoic acid]	99%
< 0.01 µM	< 0.01 µM	0.098 µM	O=C(O)CN1CCCN(c2ccc(Nc3nc(N4CCCCCC4)nc4cn[nH]c(=O)c34)cc2)CC1 [Example 145, 2-(4-(4-((2-(azepan-1-yl)-5-oxo-5,6-dihydropyrimido[4,5-d]pyridazin-4-yl)amino)phenyl)-1,4-diazepan-1-yl)acetic acid]	52%
< 0.05 µM	< 0.01 µM	0.026 µM	CC(C)(O)C1CCN(c2ccc(Nc3nc(N4CCC(CC#N)CC4)nc4cn[nH]c(=O)c34)cc2)CC1 [Example 146, 2-(1-(4-((4-(4-(2-hydroxypropan-2-yl)piperidin-1-yl)phenyl)amino)-5-oxo-5,6-dihydropyrimido[4,5-d]pyridazin-2-yl)piperidin-4-yl)acetonitrile]	66%
< 0.05 µM	< 0.01 µM	0.152 µM	N#CCC1CCN(c2nc(Nc3ccc(N4CCC(CCC(=O)O)CC4)cc3)c3c(=O)[nH]ncc3n2)CC1 [Example 147, 3-(1-(4-((2-(4-(cyanomethyl)piperidin-1-yl)-5-oxo-5,6-dihydropyrimido[4,5-d]pyridazin-4-yl)amino)phenyl)piperidin-4-yl)propanoic acid]	49%
< 0.1 µM	< 0.05 µM	0.324 µM	O=c1[nH]ncc2nc(N3CCCCC3)nc(Nc3ccc(OCCN4CCNCC4)cc3)c12 [Example 153, 4-((4-(2-(piperazin-1-yl)ethoxy)phenyl)amino)-2-(piperidin-1-yl)pyrimido[4,5-d]pyridazin-5(6H)-one]	47%

Further lines, the compound ahead of its results:

Compound	IC50 (JAK2)	IC50 [1]	EC50 (RBL2H3 cells)	inhibition at 1 µM (RBL2H3 cells)
O=C(O)CCCOc1ccc(Nc2nc(N3CCCCCC3)nc3cn[nH]c(=O)c23)cc1 [Example 92, 4-(4-((2-(azepan-1-yl)-5-oxo-5,6-dihydropyrimido[4,5-d]pyridazin-4-yl)amino)phenoxy)butanoic acid]	< 0.05 µM	< 0.01 µM	0.111 µM	100%
O=c1[nH]ncc2nc(N3CCCCCC3)nc(Nc3ccc(OCCN4CCOCC4)cc3)c12 [Example 93, 2-(azepan-1-yl)-4-((4-(2-morpholinoethoxy)phenyl)amino) pyrimido[4,5-d]pyridazin-5(6H)-one]	< 0.05 µM	< 0.05 µM	–	49%
CN1CCN(CCOc2ccc(Nc3nc(N4CCCCCC4)nc4cn[nH]c(=O)c34)cc2)CC1 [Example 95, 2-(azepan-1-yl)-4-((4-(2-(4-methylpiperazin-1-yl)ethoxy)phenyl)amino)pyrimido[4,5-d]pyridazin-5(6H)-one]	< 0.05 µM	< 0.05 µM	–	35%
O=C(O)CC1CCN(CCOc2ccc(Nc3nc(N4CCCCCC4)nc4cn[nH]c(=O)c34)cc2)CC1 [Example 96, 2-(1-(2-(4-((2-(azepan-1-yl)-5-oxo-5,6-dihydropyrimido[4,5-d]pyridazin-4-yl)amino)phenoxy)ethyl)piperidin-4-yl) acetic acid]	< 0.01 µM	< 0.01 µM	0.28 µM	85%
O=C(O)C1CCN(CCOc2ccc(Nc3nc(N4CCCCCC4)nc4cn[nH]c(=O)c34)cc2)CC1 [Example 98, 1-(2-(4-((2-(azepan-1-yl)-5-oxo-5,6-dihydropyrimido[4,5-d]pyridazin-4-yl)amino)phenoxy)ethyl)piperidine-4-carboxylic acid]	< 0.05 µM	< 0.05 µM	0.593 µM	62%
NC(=O)CC1CCN(c2ccc(Nc3nc(N4CCCCCC4)nc4cn[nH]c(=O)c34)cn2)CC1 [Example 99, 2-(1-(5-((2-(azepan-1-yl)-5-oxo-5,6-dihydropyrimido[4,5-d]pyridazin-4-yl)amino)pyridin-2-yl)piperidin-4-yl) acetamide]	< 0.05 µM	< 0.01 µM	0.044 µM	94%
O=C(c1ccc(Nc2nc(N3CCCCCC3)nc3cn[nH]c(=O)c23)cc1)N1CCNCC1 [Example 104, 2-(azepan-1-yl)-4-((4-(piperazine-1-carbonyl)phenyl)amino)pyrimido[4,5-d]pyridazin-5(6H)-one hydrochloride]	< 0.01 µM	< 0.05 µM	0.11 µM	100%
O=c1[nH]ncc2nc(N3CCCCCC3)nc(Nc3ccc(OCCN4CCNCC4)cc3)c12 [Example 107, 2-(azepan-1-yl)-4-((4-(2-(piperazin-1-yl)ethoxy)phenyl)amino)pyrimido[4,5-d]pyridazin-5(6H)-one]	< 0.05 µM	< 0.01 µM	0.094 µM	91%
N#CCC1CCN(c2nc(Nc3ccc(N4CCC(CC(=O)O)CC4)nc3)c3c(=O)[nH]ncc3n2)CC1 [Example 116, 2-(1-(5-((2-(4-(cyanomethyl)piperidin-1-yl)-5-oxo-5,6-dihydropyrimido[4,5-d]pyridazin-4-yl)amino)pyridin-2-yl)piperidin-4-yl)acetic acid]	< 0.05 µM	< 0.05 µM	0.273 µM	65%
O=C(CC1CCN(c2ccc(Nc3nc(N4CCCCCC4)nc4cn[nH]c(=O)c34)cc2)CC1)N(CCO)CCO [Example 118, 2-(1-(4-((2-(azepan-1-yl)-5-oxo-5,6-dihydropyrimido[4,5-d]pyridazin-4-yl)amino)phenyl)piperidin-4-yl)-N,N-bis(2-hydroxyethyl)acetamide]	< 0.01 µM	< 0.05 µM	0.153 µM	87%
CC1CN(c2nc(Nc3ccc(N4CCC(CC(=O)O)CC4)cc3)c3c(=O)[nH]ncc3n2)CC(C)O1 (stereo not shown) [Example 121, 2-(1-(4-((2-(2,6-dimethylmorpholino)-5-oxo-5,6-dihydropyrimido[4,5-d]pyridazin-4-yl)amino)phenyl)piperidin-4-yl)acetic acid]	< 0.05 µM	< 0.05 µM	0.156 µM	98%
